Test results taken from PubChem BioAssay (NCI).
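Cells were grown in 96-well plates and exposed to each compound for 48 hours at five concentrations; endpoints were interpolated linearly between bracketing concentrations, or set to the highest concentration if not reached. At the TGI there is no net growth.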

Legend:
Assay in all cases: NCI-60 cell line screen, 48 h
TK-10 renal = tested on: TK-10 renal
ACHN renal = tested on: ACHN renal
UO-31 renal = tested on: UO-31 renal
HS 578T breast = tested on: HS 578T breast
NCI-H23 lung = tested on: NCI-H23 lung
KM12 colon = tested on: KM12 colon
HOP-62 NSCLC = tested on: HOP-62 NSCLC
RPMI-8226 leukemia = tested on: RPMI-8226 leukemia
CAKI-1 renal = tested on: CAKI-1 renal

Row | Structure (SMILES) | TGI (TK-10 renal) | TGI (ACHN renal) | TGI (UO-31 renal) | TGI (HS 578T breast) | TGI (NCI-H23 lung) | TGI (KM12 colon) | TGI (HOP-62 NSCLC) | TGI (RPMI-8226 leukemia) | TGI (CAKI-1 renal)
1 | Cc1cc(C)cc(Nc2cc(=O)[nH]c(=O)[nH]2)c1 | > 100 µM | > 100 µM | > 100 µM | > 100 µM | > 100 µM | > 100 µM | > 100 µM | > 100 µM | 
2 | Cc1ccn2c(=O)cc(-c3ccccc3)nc2c1 | > 100 µM | > 100 µM |  | > 100 µM | > 100 µM | > 100 µM | > 100 µM | > 100 µM | 
3 | COC(=O)[C@@H]1CCCN1CCN1CCC[C@H]1C(=O)OC | > 100 µM | > 100 µM | > 100 µM |  | > 100 µM | > 100 µM | > 100 µM | > 100 µM | > 100 µM
4 | Cc1ccc2nc(Cl)c(/C=N/N3C(=O)/C(=C/c4ccccc4S)N=C3c3ccccc3)cc2c1 | > 100 µM | > 100 µM | > 100 µM | 58 µM |  | > 100 µM | > 100 µM | 68.1 µM | > 100 µM
5 | CCOP(=O)(OCC)c1c(C(=O)OC)cc(=O)[nH]c1-c1ccc(C)cc1 | 27.9 µM | 9.45 µM | 13.8 µM | 49.1 µM | 33.5 µM | 33.6 µM | 41.7 µM | 19.8 µM | 19 µM
6 | CC(=O)c1ccc2c3c1[C@@H]1O[C@@H]1c1cccc(c1-3)[C@@H]1O[C@H]21 | > 77.1 µM | 37.4 µM | 30.2 µM | 70.7 µM | 23.3 µM | 21.4 µM | 36.6 µM | > 100 µM | 15 µM
7 | O=C1c2ccccc2-c2nc(-c3cccc([N+](=O)[O-])c3)nnc21 | 39.5 µM | 16.7 µM | 42.2 µM | > 100 µM | 50.5 µM | > 100 µM |  | > 100 µM | 12.6 µM
8 | CCCSc1ccc2[nH]c(/N=C/c3ccco3)cc2c1 |  | > 100 µM | > 100 µM | > 100 µM | > 100 µM | > 100 µM | > 100 µM | 1.4 µM | > 100 µM
9 | O=C(Cc1ccccc1)NN1C(=O)/C(=C\c2cccc(O)c2)SC1=Nc1ccccc1 | > 100 µM | > 100 µM | > 100 µM | > 100 µM | > 100 µM | > 100 µM | > 100 µM |  | 
10 | CCC(C#N)NC(=O)NC(C#N)CC (configuration not stated) | > 100 µM | > 100 µM | > 100 µM | > 100 µM | > 100 µM | > 100 µM | > 100 µM | > 100 µM | > 100 µM
11 | O=c1c2c([N+](=O)[O-])cccc2nc2[nH]c3ccccc3n12 | 51.6 µM | 29 µM |  | > 75 µM | > 75 µM | > 75 µM | > 75 µM | > 75 µM | 45 µM
12 | CCC1(C)N=C(c2cnccn2)NN1c1ccc(Cl)cc1 (configuration not stated) | > 100 µM | > 100 µM | > 100 µM | > 100 µM | > 100 µM | > 100 µM | > 100 µM | > 100 µM | > 100 µM
13 | CC1=NN2C(=N)/C(=C/c3ccco3)C(=O)N=C2S1 | > 100 µM | > 100 µM | > 100 µM | > 100 µM | > 100 µM | > 100 µM | > 100 µM | > 100 µM | > 100 µM
14 | c1cc2nnnn2nc1N1CCCC1 | > 100 µM | > 100 µM | > 100 µM |  | > 100 µM | > 100 µM |  | > 100 µM | > 100 µM
15 | O=c1[nH]nc(Cc2ccc([N+](=O)[O-])cc2)n1CCO | > 100 µM | > 100 µM | > 100 µM | > 100 µM | > 100 µM | > 100 µM |  | > 100 µM | > 100 µM
16 | N#Cc1c(-c2ccccc2)nc(-c2ccccc2)sc1=S | > 100 µM | > 100 µM | > 100 µM | > 100 µM | > 100 µM | > 100 µM | > 100 µM | > 100 µM | > 100 µM
17 | O=C(OCC1OC2OC(c3ccccc3)(n3ccc4c([N+](=O)[O-])ccnc43)OC2C1OC(=O)c1ccccc1)c1ccccc1 (configuration not stated) | > 100 µM | > 100 µM | > 100 µM | > 100 µM | > 100 µM | > 100 µM | > 100 µM | > 100 µM | > 100 µM
18 | N#Cc1nc(-c2cccs2)oc1N | > 100 µM | > 100 µM | > 100 µM | > 100 µM | > 100 µM | > 100 µM | > 100 µM | > 100 µM | 53.1 µM
19 | O=c1nc2c(c(-c3ccccc3Cl)[nH]1)COC/C2=C\c1ccccc1Cl | > 100 µM | > 100 µM | > 100 µM | > 100 µM | > 100 µM | > 100 µM | > 100 µM | > 100 µM | > 100 µM
20 | CC1CCOc2ccc(cc2)C=Nc2ccc(cc2)CCc2ccc(cc2)N=Cc2ccc(cc2)OCC1 (configuration not stated) |  | > 100 µM | > 100 µM | > 100 µM | > 100 µM | > 100 µM | > 100 µM | > 100 µM | > 100 µM
21 | CN(C)c1ccc(C2SCC(=O)N2NS(=O)(=O)c2cccc(C(=O)O)c2)cc1 (configuration not stated) | > 100 µM | > 100 µM | > 100 µM | > 100 µM | > 100 µM | > 100 µM | > 100 µM | > 100 µM | > 100 µM
22 | CCOC(=O)/C=C(\C(=O)OCC)n1cc(C)c(=O)n(Cc2cnnn2CCCCOC(C)=O)c1=O | 13.7 µM | 4.83 µM | 30 µM | > 66.4 µM | 36.8 µM | 34.4 µM | > 68.1 µM | > 26.7 µM | 8.73 µM
23 | O=C1NC(N/N=C/C(O)C(O)C(O)CO)=N/C1=C\c1ccco1 (configuration not stated) | > 100 µM | > 100 µM |  | > 100 µM | > 100 µM | > 100 µM | > 100 µM | > 100 µM | > 100 µM
24 | Cc1cn(C(Cc2ccccc2)OCCO)c(=O)[nH]c1=O (configuration not stated) |  | > 100 µM | > 100 µM |  | > 100 µM | > 100 µM | > 100 µM | > 100 µM | > 100 µM
25 | C[C@H](N)C(=O)Nc1ccc(-c2nc3ccccc3s2)cc1 | 60.8 µM | 32.8 µM | 28.4 µM | > 100 µM | > 100 µM | 31.1 µM | 72.9 µM |  | 36.3 µM
